From patent US20160031859A1, “Alkyl [(S)-1-((S)-2--buta-1,3-diynyl)-phenyl]-1H-imidazol-2-yl}-pyrrolidine-1-carbonyl)-2-methyl-propyl]-carbamate naphthalene-1,5-disulfonate, pharmaceutical composition, medicament, method for treatment of viral diseases” (priority 2013, published 2016)
pEC50: −log10 of the molar value.

What was measured:
[1] = test system: subgenomic RNA-replicon HCV (genotype 1b, clon Con1); test: HCV replicon immunoenzymatic assay in Huh7 cells, genotype 1b; type: cell-based; conditions: Hepatitis C virus, Huh-7, read-out: gT1b FBS EC50
Description: Determination of antiviral activity of the compounds of the general formula 1 (inhibiting ability of NS5A protein).
Inhibiting ability of compounds of formula 1 of NS5A protein was determined in the human hepatoma cell line Huh7, comprising subgenomic RNA-replicon HCV (genotype 1b, don Con1). A version of immumoenzymatic assay (IEA) on viral protein NS5A in 96-well plate was used as an experimental method. Cytotoxicity of the compounds was estimated in parallel regime.
Cells Huh7 were seeded in 96-well plate (7.5×10^3 cells to each well in 100 μl of culture medium). Solutions of the tested compounds in DMEM medium {DMEM 1×; Source: Cellgro; Catalogue: 10-013-CV} were prepared immediately before use. Eleven serial three fold dilutions with variation of concentrations from 20 nM to 0.2 pM were prepared. In 4 hours after seeding, serial dilutions of the compounds were added to the cells (100 μl to each well). Final concentration of tested compounds was varied from 10 nM to 0.1 pM, and DMSO—0.5%. If it was necessary, higher concentrations of the disclosed azoles were investigated. Each dilution of the compound was tested on two identical wells. […] The reaction was arrested by the addition of 2N H2SO4 in amount of 100 μl/well, and optical density (wavelength 490 nm) was measured by means of multiscan plate reader Victor3 V 1420 (Perkin Elmer). […]

genotype 1a HCV = test: HCV replicon inhibitory activity, genotype 1a; type: cell-based; conditions: Hepatitis C virus; HCV genotype 1a, FBS; read-out: gT1a FBS EC50
[2] = Investigation of storage of naphthalene-1,5-disulfonates (amount of admixtures, UV 220 nm); type: physicochemical; conditions: for Max admixture / Sum of admixtures: refrigerator, 4.7° C.
Description: Investigation of storage of naphthalene-1,5-disulfonates of the general formula 1. All samples were stored in glass vials sealed with rubber cork and aluminum caps, in a refrigerator at a temperature of about ˜4.7 ° C. The amount of admixtures was determined by method of internal normalization, detection was carried out using UV detector at 220 nm. Below are given the test results for compound 1.1 showing their stability at temperature 4.7° C.

genotype 2a HCV = test: HCV replicon inhibitory activity, genotype 2a; type: cell-based; conditions: Hepatitis C virus; HCV genotype 2a, FBS; read-out: gT2a FBS EC50

In the case of COC(=O)N[C@H](C(=O)N1CCC[C@H]1c1ncc(C#CC#Cc2ccc(-c3cnc([C@@H]4CCCN4C(=O)[C@@H](NC(=O)OC)C(C)C)[nH]3)cc2)[nH]1)C(C)C [Compound 1.1, methyl [(S)-1-((S)-2-{5-[4-(4-{2-[(S)-1-((S)-2-methoxycarbonylamino-3-methyl-butyryl)-pyrrolidin-2-yl]-3H-imidazol-4-yl}-buta-1,3-diynyl)-phenyl]-1H-imidazol-2-yl}-pyrrolidine-1-carbonyl)-2-methylpropyl]-carbamate naphthalene-1,5-disulfonate], the pEC50 [1] was greater than 9.00, the pEC50 (genotype 1a HCV) was greater than 9.00 and the Max admixture ([2]; 1 week storage) was 0.348%. For the same compound, the Sum of admixtures ([2]; 1 week storage) was 1.369%, the Max admixture ([2]; 4 weeks storage) was 0.341% and the Sum of admixtures ([2]; 4 weeks storage) was 1.506%. It also gave a Max admixture ([2]; 20 weeks storage) of 0.298%, a Sum of admixtures ([2]; 20 weeks storage) of 1.493% and a Max admixture ([2]; before the test) of 0.342%. For the same compound, the Sum of admixtures ([2]; before the test) was 1.312%, the “storage stability, in words” value ([2]; temperature 4.7° C.) was “stability” and the pEC50 (genotype 2a HCV) was greater than 9.00.
